Reference: patent US20220144826A1, “Heteroaromatic and Heterobicyclic Aromatic Derivatives for the Treatment of Ferroptosis-Related Disorders” (COLLABORATIVE MEDICINAL DEVELOPMENT, LLC, priority 2019, published 2022)

Tested on: N27 rat dopaminergic neural cells
Assay: MTT assay in N27 rat dopaminergic neural cells: inhibition of RSL3-induced cell death (ferroptosis)
Assay type: cell-based
Conditions: Rattus norvegicus, N27, 24 h, ferroptosis induced by 0.5 μM RSL3, 24 hours, viability by MTT
Protocol: MTT Assay in N27 Rat Dopaminergic Neural Cells
N27 rat dopaminergic neural cells (Millipore, SCC048) were cultured in RPMI-1640 media (Wisent, 350-000) supplemented with 1×GlutaMAX (Gibco, 35050-061), 10% FBS (embryonic stem cell qualified; Wisent, 920-040), and 1× Penicillin-Streptomycin (Wisent, 450-201). Cells were grown in humidified tissue culture incubator at 37° C. with 5% CO2, for up to 10 passages. To evaluate the ability of test compounds to inhibit RSL3-induced cell death, N27 cells were seeded in clear 96-well tissue culture plates (Sarstedt, 83.3924) at a density of 15,000 cells/well. On the next day, the medium was changed to fresh complete RPMI-1640. Eight-point dilution series of test compounds were added to the cells. Then, ferroptosis was induced by addition of 0.5 μM RSL3 (vehicle-treated cells served as control). Ferrostatin-1 (Fer-1) was included in each assay as control inhibitor of ferroptosis. Plates were incubated for 24 hours at 37° C. in a tissue culture incubator, then cell viability was determined by MTT assay. Briefly, Thiazolyl Blue Tetrazolium Bromide [3-(4,5-dimethylthiazol-2-yl)-2,5-diphenyltetrazolium bromide or “MTT” ] (Sigma) stock solution (5 mg/mL in PBS, sterilized by filtration) was diluted 1:1 with complete growth medium, and added on the cells to a final concentration of 0.5 mg/mL. Cells were incubated with MTT for 4 hours at 37° C., protected from light, in a humidified, 5% CO2 atmosphere. Medium was then completely removed from the wells by gentle aspiration and converted MTT formazan crystals were dissolved in 150 μL of DMSO. Absorbance of converted dye was measured at 595 nm with background subtraction at 690 nm using the BioTek Cytation5 Microplate Reader. Blank reading (absorbance from wells containing media and vehicle only, no cells) was removed from all sample wells. Viability was calculated as a percentage of control cells (vehicle-treated cells were set as 100% viability). Dose-response curves were drawn and IC50 values were calculated using GraphPad Prism software, version 7.

SMILES | IC50 [nM]
O=C(c1ccc(F)cc1)c1nc2c(c(NC3CCCC3)n1)NCCC2 [Compound A-17, [4-(cyclopentylamino)-5,6,7,8-tetrahydropyrido[3,2-d]pyrimidin-2-yl]-(4-fluorophenyl)methanone] | 123
CCCCC(=O)c1cc2c(c(NC3CCCC3)n1)NCCC2 [Compound B-647, 1-[8-(cyclopentylamino)-1,2,3,4-tetrahydro-1,7-naphthyridin-6-yl]pentan-1-one] | 8
CCC/C=C/c1nc(NC2CCOC2)c2c(n1)OCC(=O)N2 (stereo not drawn) [Compound B-603, 4-[(oxolan-3-yl)amino]-2-[(1E)-pent-1-en-1-yl]-5H,6H,7H-pyrimido[4,5-b][1,4]oxazin-6-one] | > 3000
COCCOc1nc2c(c(NC3CCCC3)n1)NCCC2 [Compound B-495, N-cyclopentyl-2-(2-methoxyethoxy)-5,6,7,8-tetrahydropyrido[3,2-d]pyrimidin-4-amine] | 160
OC(c1ccc(F)cc1)c1nc2c(c(NC3CCCC3)n1)NCCC2 (stereo not drawn) [Compound A-11, [4-(cyclopentylamino)-5,6,7,8-tetrahydropyrido[3,2-d]pyrimidin-2-yl]-(4-fluorophenyl)methanol] | 36
CCCCCc1cc2c(c(Nc3ccccn3)c1)NCCC2 [Compound B-308] | 18
N#Cc1nc2c(c(NC3CCCC3)n1)NCCC2 [Compound F-38, 4-(cyclopentylamino)-5,6,7,8-tetrahydropyrido[3,2-d]pyrimidine-2-carbonitrile] | 812
Cc1ccc(-c2ccc(NC3COC3)c(NC3CCCC3)n2)cc1 [Compound H-81, N^2-cyclopentyl-N^3-(oxetan-3-yl)-6-(p-tolyl)pyridine-2,3-diamine] | 5
COc1ccc(-c2ccc(NC3COC3)c(NC3CCCC3)n2)cc1 [Compound H-87, N^2-cyclopentyl-6-(4-methoxyphenyl)-N^3-(oxetan-3-yl)pyridine-2,3-diamine] | 3
CCCCC(=O)c1cc2c(c(NC(C)(C)C)n1)NCCC2 [Compound S-168, 1-[8-(tert-butylamino)-1,2,3,4-tetrahydro-1,7-naphthyridin-6-yl]pentan-1-one] | 13
C1CNc2c(nc(C3CCCC3)nc2NC2CCCC2)C1 [Compound B-456, N,2-Dicyclopentyl-5,6,7,8-tetrahydropyrido[3,2-d]pyrimidin-4-amine] | 153
CCCCNc1nc2c(c(NC3CCCC3)n1)NCCC2 [Compound B-433, N2-Butyl-N4-cyclopentyl-5,6,7,8-tetrahydropyrido[3,2-d]pyrimidine-2,4-diamine] | 726
CCCC(=O)c1ccc(N)c(NC2CC(F)(F)C2)n1 [Compound P-46, 1-[5-amino-6-[(3,3-difluorocyclobutyl)amino]-2-pyridyl]butan-1-one] | 498
CCC(C)Nc1cnc(-c2cncnc2)nc1NC1CCCC1 (stereo not drawn) [Compound F-81, N^4-cyclopentyl-2-pyrimidin-5-yl-N^5-sec-butyl-pyrimidine-4,5-diamine] | 121
CCCCC(=O)c1cc2c(c(NC(C)(C)C)n1)NCC(C(F)(F)F)C2 (stereo not drawn) [Compound R-830] | 36
CCCCC(=O)c1nc2c(c(NC(C)(C)C)n1)NCCC2 [Compound A-06, 1-[4-(tert-butylamino)-5,6,7,8-tetrahydropyrido[3,2-d]pyrimidin-2-yl]pentan-1-one] | 76
CCCCOc1nc2c(c(NC3CCCC3)n1)NCCC2 [Compound B-323, 2-Butoxy-N-cyclopentyl-5,6,7,8-tetrahydropyrido[3,2-d]pyrimidin-4-amine] | 43

SMILES | IC50 [nM]
CCCCC(=O)c1cc2c(c(NS(=O)(=O)CC(C)C)c1)NCCC2 [Compound B-251, 2-methyl-N-(6-pentanoyl-1,2,3,4-tetrahydroquinolin-8-yl)propane-1-sulfonamide] | 9300
Cc1ccc(-c2nc(NC3CCCC3)c3c(n2)C(=O)N(C)C(C)(C)N3)cc1 [Compound K-36, 8-(cyclopentylamino)-2,2,3-trimethyl-6-(p-tolyl)-1H-pyrimido[5,4-d]pyrimidin-4-one] | 525
CCOC(=O)c1cc2c(c(NC3CCCC3)c1)NC(C)(C)CC2 [Compound B-273, Ethyl 8-cyclopentylamino-2,2-dimethyl-3,4-dihydro-1H-quinoline-6-carboxylate] | 1040
CCCCC(=O)c1nc2c(c(N3CCCC3)n1)NCCC2 [Compound A-18, 1-(4-pyrrolidin-1-yl-5,6,7,8-tetrahydropyrido[3,2-d]pyrimidin-2-yl)pentan-1-one] | 217
CC1=Nc2cc(C#N)ccc2NC1(C)C [Compound Q-912, 2,2,3-trimethyl-1H-quinoxaline-6-carbonitrile] | > 3000
CCCCCc1nc2c(c(NC3CCCC3)n1)NCCC2 [Compound B-349, N-Cyclopentyl-2-pentyl-5,6,7,8-tetrahydropyrido[3,2-d]pyrimidin-4-amine] | 170
CC(C)=Cc1nc(C)nc(NC2CCCC2)c1N [Compound F-99, N^4-cyclopentyl-2-methyl-6-(2-methylprop-1-enyl)pyrimidine-4,5-diamine] | > 625
Cc1ccc(-c2ccc(NC(C)(C)C)c(NC3CCCC3)n2)cc1 [Compound A-98, N^3-tert-butyl-N^2-cyclopentyl-6-(p-tolyl)pyridine-2,3-diamine] | 7
CCCCC(O)c1nc2c(c(NC(C)(C)C)n1)NCCC2 (stereo not drawn) [Compound A-00, 1-[4-(tert-butylamino)-5,6,7,8-tetrahydropyrido[3,2-d]pyrimidin-2-yl]pentan-1-ol] | 139
OC(c1ccccc1)c1nc2c(c(NC3CCCC3)n1)NCCC2 (stereo not drawn) [Compound A-10, [4-(cyclopentylamino)-5,6,7,8-tetrahydropyrido[3,2-d]pyrimidin-2-yl]-phenyl-methanol] | 71
CCC(C)Nc1cnc(-c2cccnc2)nc1NC1CCCC1 (stereo not drawn) [Compound F-78, N^4-cyclopentyl-2-(3-pyridyl)-N^5-sec-butyl-pyrimidine-4,5-diamine] | 89
CCCCC(=O)c1cc(N)c2c(c1)CCCN2S(=O)(=O)CC(C)C [Compound B-060] | 4020
CCCC(=O)c1ccc(NC2CC(F)(F)C2)c(NC2CC(F)(F)C2)n1 [Compound P-47, 1-[5,6-bis[(3,3-difluorocyclobutyl)amino]-2-pyridyl]butan-1-one] | 201
CCCCC(O)c1nc2c(c(N3CCCC3)n1)NCCC2 (stereo not drawn) [Compound E-09] | 492
CC1(Nc2nc(-c3ccncc3)nc3c2NCCC3)CCOC1 (stereo not drawn) [Compound P-71, N-(3-methyltetrahydrofuran-3-yl)-2-(4-pyridyl)-5,6,7,8-tetrahydropyrido[3,2-d]pyrimidin-4-amine] | 463
CCCCCc1nc(NC2CCOC2)c2c(n1)OCCN2 (stereo not drawn) [Compound B-604, 2-pentyl-N-tetrahydrofuran-3-yl-6,7-dihydro-5H-pyrimido[4,5-b][1,4]oxazin-4-amine] | 388
CC(C)(C)Nc1nc(OCC(F)(F)F)cc2c1NCC(C(F)(F)F)C2 (stereo not drawn) [Compound S-101, N-tert-butyl-6-(2,2,2-trifluoroethoxy)-3-(trifluoromethyl)-1,2,3,4-tetrahydro-1,7-naphthyridin-8-amine] | 1260

Same assay, conditions: Rattus norvegicus, N27, 24 h, ferroptosis induced by 0.5 μM RSL3, 24 hours, viability by MTT, cell unit uM

SMILES | IC50 [nM]
CCCCC(=O)c1nc2c(c(Nc3ccccn3)n1)NCCC2 [Compound G-65, 1-[4-(2-pyridylamino)-5,6,7,8-tetrahydropyrido[3,2-d]pyrimidin-2-yl]pentan-1-one] | > 10000
CNC(=O)c1nc(-c2ccc(C)cc2)nc2c1NC(C)(C)N2C1CCCC1 [Compound K-34] | > 10000
